Results published in US9149475B2, “Protein kinase C inhibitors and uses thereof” (Rigel Pharmaceuticals, Inc., priority 2009, dated 2015).

Each compound was assayed on Human primary T cells (assay: IL-2 ELISA, human primary T cell, anti-CD3+CD28+ (whole cell assay)). Conditions: Homo sapiens, T-cell, 24 h, human primary T cells stimulated with anti-CD3 + anti-CD28, 24 hours.
Format: cell-based
How it was run: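 PBMC-derived T cells, pre-expanded on αCD3/αCD28 with IL-2 and then washed free of IL-2, were preincubated with compound for 1 hr at 37° C (100,000 cells/well). They were then stimulated on 1 μg/ml αCD3 plus 5 μg/ml αCD28 for 24 h, and supernatant IL-2 was measured by ELISA. The counter-assay used 0.5 ng/ml PMA plus 0.1 μM ionomycin instead.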

Compound	IC50 [nM]
COCCn1nnnc1-c1cc(Nc2ncc(F)c(NC3CC(C)(C)NC(C)(C)C3)n2)ccc1F [III-129, 5-fluoro-N2-(4-fluoro-3-(1-(2-methoxyethyl)-1H-tetrazol-5-yl)phenyl)-N4-(2,2,6,6-tetramethylpiperidin-4-yl)pyrimidine-2,4-diamine]	> 1000
Cc1cc(Nc2ncc(F)c(NC3CC(C)(C)NC(C)(C)C3)n2)cc(-c2nnnn2C)c1 [III-132, 5-fluoro-N2-(3-methyl-5-(1-methyl-1H-tetrazol-5-yl)phenyl)-N4-(2,2,6,6-tetramethylpiperidin-4-yl)pyrimidine-2,4-diamine]	250 to 500
Cc1cc(Nc2ncc(F)c(NC3CC(C)(C)N(C)C(C)(C)C3)n2)cc(-c2nnnn2C)c1 [III-133, 5-fluoro-N2-(3-methyl-5-(1-methyl-1H-tetrazol-5-yl)phenyl)-N4-(1,2,2,6,6-pentamethylpiperidin-4-yl)pyrimidine-2,4-diamine]	< 250
Cn1nnnc1-c1cc(Cl)cc(Nc2ncc(F)c(NC3CC(C)(C)NC(C)(C)C3)n2)c1 [III-134, N2-(3-chloro-5-(1-methyl-1H-tetrazol-5-yl)phenyl)-5-fluoro-N4-(2,2,6,6-tetramethylpiperidin-4-yl)pyrimidine-2,4-diamine]	< 250
CN1C(C)(C)CC(Nc2nc(Nc3cc(Cl)cc(-c4nnnn4C)c3)ncc2F)CC1(C)C [III-135, N2-(3-chloro-5-(1-methyl-1H-tetrazol-5-yl)phenyl)-5-fluoro-N4-(1,2,2,6,6-pentamethylpiperidin-4-yl)pyrimidine-2,4-diamine]	< 250
Cn1nnnc1-c1cc(F)cc(Nc2ncc(F)c(NC3CC(C)(C)NC(C)(C)C3)n2)c1 [III-138, 5-fluoro-N2-(3-fluoro-5-(1-methyl-1H-tetrazol-5-yl)phenyl)-N4-(2,2,6,6-tetramethylpiperidin-4-yl)pyrimidine-2,4-diamine]	500 to 1000
CN1C(C)(C)CC(Nc2nc(Nc3cc(F)cc(-c4nnnn4C)c3)ncc2F)CC1(C)C [III-139, 5-fluoro-N2-(3-fluoro-5-(1-methyl-1H-tetrazol-5-yl)phenyl)-N4-(1,2,2,6,6-pentamethylpiperidin-4-yl)pyrimidine-2,4-diamine]	< 250
Cn1nnnc1-c1cc(Nc2ncc(F)c(NC3CC(C)(C)NC(C)(C)C3)n2)cc(C(F)(F)F)c1 [III-140, 5-fluoro-N2-(3-(1-methyl-1H-tetrazol-5-yl)-5-(trifluoromethyl)phenyl)-N4-(2,2,6,6-tetramethylpiperidin-4-yl)pyrimidine-2,4-diamine]	< 250
CN1C(C)(C)CC(Nc2nc(Nc3cc(-c4nnnn4C)cc(C(F)(F)F)c3)ncc2F)CC1(C)C [III-141, 5-fluoro-N2-(3-(1-methyl-1H-tetrazol-5-yl)-5-(trifluoromethyl)phenyl)-N4-(1,2,2,6,6-pentamethylpiperidin-4-yl)pyrimidine-2,4-diamine]	< 250
CC(C)Oc1c(F)cc(Nc2ncc(F)c(NC3CC(C)(C)NC(C)(C)C3)n2)cc1-c1nnnn1C [III-142, 5-fluoro-N2-(3-fluoro-4-isopropoxy-5-(1-methyl-1H-tetrazol-5-yl)phenyl)-N4-(2,2,6,6-tetramethylpiperidin-4-yl)pyrimidine-2,4-diamine]	250 to 500
Cn1nnnc1-c1cc(Nc2ncc(F)c(NC3CC(C)(C)NC(C)(C)C3)n2)cc(OC2COC2)c1 [III-145, 5-fluoro-N2-(3-(1-methyl-1H-tetrazol-5-yl)-5-(oxetan-3-yloxy)phenyl)-N4-(2,2,6,6-tetramethylpiperidin-4-yl)pyrimidine-2,4-diamine]	> 1000
CN1C(C)(C)CC(Nc2nc(Nc3cc(OC4COC4)cc(-c4nnnn4C)c3)ncc2F)CC1(C)C [III-146, 5-fluoro-N2-(3-(1-methyl-1H-tetrazol-5-yl)-5-(oxetan-3-yloxy)phenyl)-N4-(1,2,2,6,6-pentamethylpiperidin-4-yl)pyrimidine-2,4-diamine]	250 to 500
Cn1nnnc1-c1cc(Nc2ncc(F)c(NC3CC(C)(C)NC(C)(C)C3)n2)cc(C2CC2)c1 [III-147, N2-(3-cyclopropyl-5-(1-methyl-1H-tetrazol-5-yl)phenyl)-5-fluoro-N4-(2,2,6,6-tetramethylpiperidin-4-yl)pyrimidine-2,4-diamine]	< 250

Results, then the compound that gave them:

IC50 [nM]	Compound
< 250	Cn1nnnc1-c1cc(Nc2ncc(F)c(NC3CC(C)(C)NC(C)(C)C3)n2)ccc1Cl [III-130, N2-(4-chloro-3-(1-methyl-1H-tetrazol-5-yl)phenyl)-5-fluoro-N4-(2,2,6,6-tetramethylpiperidin-4-yl)pyrimidine-2,4-diamine]
< 250	CN1C(C)(C)CC(Nc2nc(Nc3ccc(Cl)c(-c4nnnn4C)c3)ncc2F)CC1(C)C [III-131, N2-(4-chloro-3-(1-methyl-1H-tetrazol-5-yl)phenyl)-5-fluoro-N4-(1,2,2,6,6-pentamethylpiperidin-4-yl)pyrimidine-2,4-diamine]
250 to 500	Cn1nnnc1-c1cc(Nc2ncc(F)c(NC3CC(C)(C)NC(C)(C)C3)n2)cc(F)c1F [III-136, N2-(3,4-difluoro-5-(1-methyl-1H-tetrazol-5-yl)phenyl)-5-fluoro-N4-(2,2,6,6-tetramethylpiperidin-4-yl)pyrimidine-2,4-diamine]
< 250	CN1C(C)(C)CC(Nc2nc(Nc3cc(F)c(F)c(-c4nnnn4C)c3)ncc2F)CC1(C)C [III-137, N2-(3,4-difluoro-5-(1-methyl-1H-tetrazol-5-yl)phenyl)-5-fluoro-N4-(1,2,2,6,6-pentamethylpiperidin-4-yl)pyrimidine-2,4-diamine]
500 to 1000	Cn1nnnc1-c1cc(C#N)cc(Nc2ncc(F)c(NC3CC(C)(C)NC(C)(C)C3)n2)c1 [III-143, 3-(5-fluoro-4-(2,2,6,6-tetramethylpiperidin-4-ylamino)pyrimidin-2-ylamino)-5-(1-methyl-1H-tetrazol-5-yl)benzonitrile]
< 250	CN1C(C)(C)CC(Nc2nc(Nc3cc(C#N)cc(-c4nnnn4C)c3)ncc2F)CC1(C)C [III-144, 3-(5-fluoro-4-(1,2,2,6,6-pentamethylpiperidin-4-ylamino)pyrimidin-2-ylamino)-5-(1-methyl-1H-tetrazol-5-yl)benzonitrile]

Same assay, conditions: human primary T cells stimulated with anti-CD3 + anti-CD28, 24 hours

Compound	IC50 [nM]
N2-(3,5-Dimethoxyphenyl)-5-fluoro-N4-(1-N-oxide-2,2,6,6-pentamethylpiperidin-4-yl)-2,4-pyrimidinediamine [Compound I-111]	> 1000
